Experimental data taken from ChEMBL document CHEMBL4396962, “Discovery of novel steroidal histamine H3 receptor antagonists/inverse agonists. Part 2. Versatile steroidal carboxamide derivatives” (Bioorg Med Chem Lett, 2019).
≈ marks a conversion by molar mass, not a printed value.

How the values were obtained:
Histamine H3 receptor [1] = target: Histamine H3 receptor (Homo sapiens, UniProt Q9Y5N1); test: Displacement of [3H]methyl- N-alpha methylhistamine dihydrochloride from human recombinant H3 receptor expressed in CHOK1 cells measured after 30 mins by liquid scintillation counter method; type: cell-based
Histamine H3 receptor (Homo sapiens, UniProt Q9Y5N1), sequence (Q9Y5N1 whole entry): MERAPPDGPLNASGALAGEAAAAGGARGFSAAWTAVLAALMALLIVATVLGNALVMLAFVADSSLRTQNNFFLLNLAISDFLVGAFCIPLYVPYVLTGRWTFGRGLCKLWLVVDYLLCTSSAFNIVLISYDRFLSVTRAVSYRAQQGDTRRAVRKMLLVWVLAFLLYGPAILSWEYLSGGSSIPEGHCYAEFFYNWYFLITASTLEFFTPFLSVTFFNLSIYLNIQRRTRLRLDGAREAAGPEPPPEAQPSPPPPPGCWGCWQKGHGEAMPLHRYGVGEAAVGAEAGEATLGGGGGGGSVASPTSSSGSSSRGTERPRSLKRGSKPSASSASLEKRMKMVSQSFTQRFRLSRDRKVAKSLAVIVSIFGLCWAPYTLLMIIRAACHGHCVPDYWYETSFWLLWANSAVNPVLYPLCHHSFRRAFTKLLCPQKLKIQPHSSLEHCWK

Histamine H3 receptor [2] = target: Histamine H3 receptor (Rattus norvegicus, UniProt Q9QYN8); test: Displacement of [3H]methyl- N-alpha methylhistamine dihydrochloride from Sprague-Dawley rat cerebral cortex H3 receptor measured after 30 mins by scintillation counter method
Histamine H3 receptor (Rattus norvegicus, UniProt Q9QYN8), sequence (Q9QYN8 whole entry): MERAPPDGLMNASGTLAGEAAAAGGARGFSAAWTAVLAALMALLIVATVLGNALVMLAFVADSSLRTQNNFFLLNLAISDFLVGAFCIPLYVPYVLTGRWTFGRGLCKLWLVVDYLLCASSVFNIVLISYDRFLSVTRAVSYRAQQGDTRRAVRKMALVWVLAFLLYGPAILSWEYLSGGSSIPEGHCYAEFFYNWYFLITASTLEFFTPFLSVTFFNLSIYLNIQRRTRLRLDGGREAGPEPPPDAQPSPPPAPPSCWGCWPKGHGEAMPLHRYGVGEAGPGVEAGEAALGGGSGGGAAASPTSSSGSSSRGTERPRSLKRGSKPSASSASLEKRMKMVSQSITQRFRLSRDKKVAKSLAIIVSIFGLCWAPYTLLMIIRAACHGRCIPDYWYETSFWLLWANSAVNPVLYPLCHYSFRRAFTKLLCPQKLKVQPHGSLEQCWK

[3] = target: Muscarinic acetylcholine receptor (Rattus norvegicus) (UniProt P08482+P08483+P08485+P08911+P10980); test: Displacement of [3H]quinuclidinyl benzilate from Wistar rat cortex muscarinic acetylcholine receptor at 3 uM by liquid scintillation counter method relative to control
[4] = Fraction of drug metabolized in human microsomes; type: ADME, Microsome; conditions: read-out: Fm
[5] = target: Voltage-gated inwardly rectifying potassium channel KCNH2 (Homo sapiens, UniProt Q12809); test: Inhibition of human ERG
Voltage-gated inwardly rectifying potassium channel KCNH2, sequence (Q12809 whole entry): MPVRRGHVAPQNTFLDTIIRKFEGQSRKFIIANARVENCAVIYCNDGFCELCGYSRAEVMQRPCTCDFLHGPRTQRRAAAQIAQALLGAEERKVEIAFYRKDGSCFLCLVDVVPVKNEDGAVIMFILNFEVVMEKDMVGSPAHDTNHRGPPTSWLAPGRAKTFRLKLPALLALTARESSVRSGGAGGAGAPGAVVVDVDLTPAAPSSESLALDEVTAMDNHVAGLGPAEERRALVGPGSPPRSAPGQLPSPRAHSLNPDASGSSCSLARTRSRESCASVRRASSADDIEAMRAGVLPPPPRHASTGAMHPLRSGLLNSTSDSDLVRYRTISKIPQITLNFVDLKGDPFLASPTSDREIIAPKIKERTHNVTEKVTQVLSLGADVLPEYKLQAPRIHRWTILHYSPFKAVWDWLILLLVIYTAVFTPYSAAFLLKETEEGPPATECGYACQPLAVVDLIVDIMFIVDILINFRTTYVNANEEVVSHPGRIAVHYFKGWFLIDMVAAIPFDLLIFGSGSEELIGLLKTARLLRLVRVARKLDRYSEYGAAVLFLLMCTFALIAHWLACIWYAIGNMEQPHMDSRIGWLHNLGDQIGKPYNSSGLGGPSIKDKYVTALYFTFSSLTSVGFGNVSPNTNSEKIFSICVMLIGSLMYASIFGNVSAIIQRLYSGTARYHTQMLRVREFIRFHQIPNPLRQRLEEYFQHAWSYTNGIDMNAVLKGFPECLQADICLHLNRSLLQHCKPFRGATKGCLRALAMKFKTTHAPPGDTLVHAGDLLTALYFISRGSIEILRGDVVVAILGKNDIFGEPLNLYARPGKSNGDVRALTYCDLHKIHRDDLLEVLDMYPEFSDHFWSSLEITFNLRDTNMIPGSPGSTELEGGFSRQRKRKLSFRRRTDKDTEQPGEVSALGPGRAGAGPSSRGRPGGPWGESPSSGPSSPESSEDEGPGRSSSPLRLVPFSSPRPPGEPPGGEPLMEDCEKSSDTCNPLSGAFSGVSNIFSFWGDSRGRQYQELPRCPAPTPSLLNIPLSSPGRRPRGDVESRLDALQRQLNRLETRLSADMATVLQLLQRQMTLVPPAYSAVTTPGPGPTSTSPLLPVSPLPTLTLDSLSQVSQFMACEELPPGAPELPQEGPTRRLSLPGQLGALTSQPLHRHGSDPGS

Rattus norvegicus [6] = test: In vivo antagonist activity at H3 receptor in po dosed Wistar rat assessed as inhibition of imetit induced dipsogenia preincubated for 30 mins followed by imetit administration at 3 mg/kg,sc; type: functional
[7] = Fraction of drug metabolized in rat microsomes; type: ADME, Microsome; conditions: read-out: Fm
[8] = target: Muscarinic acetylcholine receptor; test: Displacement of [3H]quinuclidinyl benzilate from Wistar rat cortex muscarinic acetylcholine receptor by liquid scintillation counter method
Rattus norvegicus [9] = species: Rattus norvegicus; test: Selectivity index, ratio of Ki for Wistar rat cortex muscarinic acetylcholine receptor to Ki for Sprague-Dawley rat cerebral cortex H3 receptor
[10] = Partition coefficient, logD of compound at pH 7.4; type: physicochemical; conditions: octanol/water
[11] = Tmax in Wistar rat brain at 10 mg/kg, po measured after 5 hrs by HPLC-MS/MS analysis; type: ADME, organism-based
Rattus norvegicus [12] = test: Cognitive enhancement in scopolamine-induced amnesia Wistar rat model assessed as increase in memory retrieval at 3 mg/kg, po with scopolamine treatment for 23 hrs followed by compound administration measured after 1 hr by water labyrinth relative to control; type: functional
[13] = Ratio of AUC (0 to infinity) in Wistar rat brain to plasma at 10 mg/kg, po measured after 5 hrs by HPLC-MS/MS analysis; type: ADME, organism-based
[14] = Lipophilicity, logP of compound; type: physicochemical; conditions: octanol/water
[15] = Kinetic solubility of compound; type: physicochemical; conditions: read-out: Kinetic_solubility
[16] = Solubility of compound in DMSO; type: physicochemical
[17] = target: Histamine H3 receptor (Rattus norvegicus) (UniProt Q9QYN8); test: Displacement of [3H]methyl- N-alpha methylhistamine dihydrochloride from Sprague-Dawley rat cerebral cortex H3 receptor measured after 30 mins by scintillation counter method relative to control
Histamine H3 receptor (Rattus norvegicus), sequence (Q9QYN8 whole entry): as the sequence (Q9QYN8 whole entry) above

Rattus norvegicus [18] = test: In vivo antagonist activity at H3 receptor in ip dosed Wistar rat assessed as inhibition of imetit induced dipsogenia preincubated for 30 mins followed by imetit administration at 3 mg/kg,sc; type: functional
Rattus norvegicus [19] = test: In vivo antagonist activity at Wistar rat H3 receptor assessed as inhibition of imetit-induced dipsogenia at 30 mg/kg, po for 30 mins followed by imetit administration at 3 mg/kg, sc, relative to control; type: functional

| Compound | Ki (Histamine H3 receptor [1]) [µM] | Ki (Histamine H3 receptor [2]) [µM] | Activity [3] [%] | metabolised [4] [%] | IC50 [5] [µM] | metabolised [7] [%] | other results |
| --- | --- | --- | --- | --- | --- | --- | --- |
| CCNC(=O)[C@H]1CC(=O)[C@@]2(C)CC[C@@H]3c4ccc(OCCCN5CCC[C@@H]5C)cc4CC[C@H]3[C@H]12 | 0.021 |  |  |  |  |  |  |
| C[C@@H]1CCCN1CCCOc1ccc2c(c1)CC[C@@H]1[C@@H]2CC[C@]2(C)[C@@H](N3CCCC3=O)CC[C@@H]12 |  | 0.135 | 51 |  |  |  |  |
| C[C@H]1CCCN1CCCOc1ccc2c(c1)CC[C@H]1[C@@H]3[C@H](C(=O)N4CCCC4)CC(=O)[C@@]3(C)CC[C@H]21 | 0.03 | 0.009 | 16 | 75 | 80 | 85 | ED50 (Rattus norvegicus [6]): 0.6 mg/kg |
| C[C@@H]1CCCN1CCCOc1ccc2c(c1)CC[C@H]1[C@@H]3[C@@H](C(=O)NCC4CC4)CC[C@@]3(C)CC[C@H]21 | 0.009 | 0.013 | 27 | 90 | 4.1 | 76 |  |
| CC(=O)N[C@@H]1CC(=O)[C@@]2(C)CC[C@@H]3c4ccc(OCCCN5CCC[C@H]5C)cc4CC[C@H]3[C@H]12 | 0.01 | 0.039 | 20 | 85 |  | 46 |  |
| C[C@@H]1CCCN1CCCOc1ccc2c(c1)CC[C@@H]1[C@@H]2CC[C@]2(C)[C@@H](C(=O)N3CCCC3)CC[C@@H]12 | 0.002 | 0.018 |  |  |  |  | Ki [8]: 0.454 µM; Ratio Ki (Rattus norvegicus [9]): 25 |
| CCNC(=O)[C@H]1CC(=O)[C@@]2(C)CC[C@@H]3c4ccc(OCCCN5CCC[C@H]5C)cc4CC[C@H]3[C@H]12 | 0.003 | 0.009 |  | 99 | 17.5 | 99 | logD [10]: 1.7; Tmax [11]: 1 h; Activity (Rattus norvegicus [12]): 52.3%; Kp at 5 h [13]: 0.24; logP [14]: 4.2; solubility kinetic [15]: 250 µM (≈ 117 µg/mL); ED50 (Rattus norvegicus [6]): 0.47 mg/kg; Ki [8]: 4.7 µM; solubility [16]: > 50000 µM |
| CCNC(=O)[C@H]1CC(=O)[C@@]2(C)CC[C@@H]3c4ccc(OCCCN5CCC(F)(F)CC5)cc4CC[C@H]3[C@H]12 | 1.37 |  |  |  |  |  |  |
| CCN(CC)C(=O)[C@@H]1CC(=O)[C@@]2(C)CC[C@@H]3c4ccc(OCCCN5CCC[C@@H]5C)cc4CC[C@H]3[C@H]12 | 0.034 |  |  |  |  |  | inhibition [17]: 44% |
| CCNC(=O)[C@H]1CC[C@@]2(C)CC[C@@H]3c4ccc(OCCCN5CCC[C@H]5C)cc4CC[C@H]3[C@H]12 | 0.009 | 0.024 | 24 | 62 | 4.1 | 66 | ED50 (Rattus norvegicus [6]): 2.26 to 2.3 mg/kg |
| CCNC(=O)[C@@H]1CC(=O)[C@@]2(C)CC[C@@H]3c4ccc(OCCN5CCC[C@@H]5C)cc4CC[C@H]3[C@H]12 | 0.26 |  | 4 |  |  |  |  |
| CCNC(=O)[C@H]1CC(=O)[C@@]2(C)CC[C@@H]3c4ccc(OCCCN5CC[C@@H](F)C5)cc4CC[C@H]3[C@H]12 | 0.23 |  |  |  |  |  |  |
| C[C@]12CC[C@@H]3c4ccc(OCCCN5CCCC5=O)cc4CC[C@H]3[C@@H]1CC[C@@H]2N1CCCC1 | 0.009 | 0.022 |  | 77 |  | 85 | Ki [8]: 0.7 µM |
| CCNC(=O)[C@@H]1CC(=O)[C@@]2(C)CC[C@@H]3c4ccc(OCCCCN5CCC[C@@H]5C)cc4CC[C@H]3[C@H]12 | 0.234 |  | 17 |  |  |  |  |
| C[C@]12CC[C@@H]3c4ccc(OCCCN5CCCC5)cc4CC[C@H]3[C@@H]1CC[C@@H]2N1CCCC1 |  |  |  |  | 7.5 |  | ED50 (Rattus norvegicus [18]): 12 mg/kg; Ki [8]: 0.11 µM; inhibition (INH) (Rattus norvegicus [19]): 19% |
| CCNC(=O)[C@H]1CC(=O)[C@@]2(C)CC[C@@H]3c4ccc(OCCCN5CCC(F)CC5)cc4CC[C@H]3[C@H]12 | 0.53 |  |  |  |  |  |  |
| CCNC(=O)[C@H]1C[C@H](OC)[C@@]2(C)CC[C@@H]3c4ccc(OCCCN5CCC[C@H]5C)cc4CC[C@H]3[C@H]12 | 0.009 | 0.028 | 7 | 96 | 11.4 | 96 | ED50 (Rattus norvegicus [6]): 2.5 mg/kg |
| C[C@@H]1CCCN1CCCOc1ccc2c(c1)CC[C@H]1[C@@H]3[C@@H](C(=O)NCC4CCC4)CC[C@@]3(C)CC[C@H]21 | 0.005 | 0.019 |  | 48 |  | 50 | Ki [8]: 1.708 µM |
| N-ethyl-2-((8R,9S,13S,14S,15R,17S)-17-methoxy-13-methyl-3-(3-((R)-2-methylpyrrolidin-1-yl)propoxy)-7,8,9,11,12,13,14,15,16,17-decahydro-6H-cyclopenta[a]phenanthren-15-yl)acetamide |  |  | 6 |  |  |  |  |
| CCNC(=O)[C@@H]1CC(=O)[C@@]2(C)CC[C@@H]3c4ccc(OCCCN5CCC[C@H]5C)cc4CC[C@H]3[C@H]12 | 0.043 |  |  |  |  |  |  |
